Literature values in patent publication US6077934A (priority 1998, dated 2000).

System: Swiss Webster mice
Conditions: mouse, in vivo

GCX1 X2 EPWC [contryphan-R]
symptomatology after intracranial injection: "stiff-tail syndrome"
